In patent publication US8278090B1, “Heterotrophic cultivation of hydrocarbon-producing microalgae” (Solazyme, Inc., priority 2008, dated 2012):
Values joined by “and” are separate entries in the source; they are usually repeats but may differ in a detail not shown here. Identical values can stand only once.

Tests used:
Format in all cases: cell-based
[1] = tested on: Botryococcus braunii UTEX 572; experiment: Different fixed carbon sources on heterotrophic growth, visual score; design: key to heterotrophic growth score, 0.1% / heterotrophic growth score, 0.5% / heterotrophic growth score, 1%: Growth was scored with +'s by visual examination of the cultures; ++: Growth was scored with +'s by visual examination of the cultures; +++: Growth was scored with +'s by visual examination of the cultures; ++++: Growth was scored with +'s by visual examination of the cultures; +++++: Growth was scored with +'s by visual examination of the cultures; settings: for heterotrophic growth score, 0.1%: UTEX 572, 0.1% carbon source in 1 ml BG11, dark; for heterotrophic growth score, 0.1% / heterotrophic growth score, 0.5% / heterotrophic growth score, 1%: 4 weeks; for heterotrophic growth score, 0.5%: UTEX 572, 0.5% carbon source in 1 ml BG11, dark; for heterotrophic growth score, 1%: UTEX 572, 1% carbon source in 1 ml BG11, dark; for heterotrophic growth on carbon source, in words: UTEX 572, dark
Protocol: (§1) All carbon sources were tested at three different concentrations; 0.1%, 0.5% and 1%. Cultures were grown in 24 well plates for 4 weeks in the dark in 1 ml BG11 plus fixed carbon. Control cultures were grown in BG-11 media under phototrophic conditions without a fixed carbon source. Growth was scored with +'s by visual examination of the cultures (see Table 7). UTEX 572 grew best in glucose, however there was also growth on mannose, galactose and fructose. UTEX 2441 preferred mannose in the dark but there was some growth in galactose, fructose and glycerol.

[2] = tested on: Botryococcus braunii N-836; experiment: as above; design: key to heterotrophic growth score, 0.1% / heterotrophic growth score, 0.5% / heterotrophic growth score, 1%: Growth was scored with +'s by visual examination of the cultures; ++: Growth was scored with +'s by visual examination of the cultures; +++: Growth was scored with +'s by visual examination of the cultures; ++++: Growth was scored with +'s by visual examination of the cultures; +++++: Growth was scored with +'s by visual examination of the cultures; settings: for heterotrophic growth score, 0.1%: N-836, 0.1% carbon source in 1 ml BG11, dark; for heterotrophic growth score, 0.1% / heterotrophic growth score, 0.5% / heterotrophic growth score, 1%: 4 weeks; for heterotrophic growth score, 0.5%: N-836, 0.5% carbon source in 1 ml BG11, dark; for heterotrophic growth score, 1%: N-836, 1% carbon source in 1 ml BG11, dark; for heterotrophic growth on carbon source, in words: N-836, dark
Protocol: as §1

[3] = tested on: Botryococcus braunii UTEX 2441; experiment: as above; design: key to heterotrophic growth score, 0.1% / heterotrophic growth score, 0.5% / heterotrophic growth score, 1%: Growth was scored with +'s by visual examination of the cultures; ++: Growth was scored with +'s by visual examination of the cultures; +++: Growth was scored with +'s by visual examination of the cultures; ++++: Growth was scored with +'s by visual examination of the cultures; +++++: Growth was scored with +'s by visual examination of the cultures; settings: for heterotrophic growth score, 0.1%: UTEX 2441, 0.1% carbon source in 1 ml BG11, dark; for heterotrophic growth score, 0.1% / heterotrophic growth score, 0.5% / heterotrophic growth score, 1%: 4 weeks; for heterotrophic growth score, 0.5%: UTEX 2441, 0.5% carbon source in 1 ml BG11, dark; for heterotrophic growth score, 1%: UTEX 2441, 1% carbon source in 1 ml BG11, dark; for heterotrophic growth on carbon source, in words: UTEX 2441, dark
Protocol: as §1

[4] = tested on: Botryococcus braunii UTEX 572; experiment: Mixotrophic growth with fixed carbon source in BG11 media in light; settings: for DCW / DCW mg/15 ml.: three weeks
Protocol: (§2) Modified BG-11 (17.65 mM NaNO3, 0.23 mM K2PO4, 0.3 mM MgSO4.7H2O, 0.25 mM CaCl2.2H2O, 0.189 mM Na2CO3, 0.03 mM citric acid monohydrate, 0.023 mM ferric ammonium citrate, 0.046 mM H3BO3, 9.15 μM MnCl2.4H2O, 0.77 μM ZnSO4.7H2O, 0.32 μM CuSO4.5H2O, 0.21 μM CoCl2.6H2O, 1.62 μM NaMoO4.2H2O, 2.69 μM Na2EDTA, 9 mg/l Tricine, 1.99 μM Thiamine-HCl, 0.006 μM Cyanocobalamine, 0.044 μM Calcium Pantothenate, 0.29 μM p-aminobenzoic acid, soil water). […] Dry cell weight (DCW) were measured after three weeks for the glycerol samples.

[5] = tested on: Botryococcus braunii UTEX 2441; experiment: as above; settings: for DCW / DCW mg/15 ml.: three weeks
Protocol: as §2

[6] = tested on: Botryococcus braunii UTEX 572; experiment: Complex nitrogen sources on heterotrophic growth with glucose; settings: dark, 4 weeks
Protocol: (§3) The following experiment was done with UTEX 572, UTEX 2441, and N-836 in 20 ml of BG11 plus:
(§4) 1% glucose+2 g/L hydrolyzed casein

[7] = tested on: Botryococcus braunii UTEX 2441; experiment: as above; settings: UTEX 2441, 1% glucose + 10 mM Urea, dark, 4 weeks
Protocol: as §3, §4

[8] = UTEX 572, 0.75% glycerol in BG11, light
[9] = UTEX 572, 1% glycerol in BG11, light
[10] = UTEX 572, 1.5% glycerol in BG11, light
[11] = UTEX 2441, 0.75% glycerol in BG11, light
[12] = UTEX 2441, 1% glycerol in BG11, light
[13] = UTEX 2441, 1.5% glycerol in BG11, light
[14] = UTEX 572, 1% glucose + 10 mM Urea

O=C[C@@H](O)[C@H](O)[C@H](O)CO [arabinose]
heterotrophic growth score, 0.1% [1]: +
heterotrophic growth score, 0.5% [1]: +
heterotrophic growth score, 1% [1]: +
heterotrophic growth score, 0.1% [2]: +
heterotrophic growth score, 0.5% [2]: +
heterotrophic growth score, 1% [2]: +
heterotrophic growth score, 0.1% [3]: ++
heterotrophic growth score, 0.5% [3]: ++
heterotrophic growth score, 1% [3]: ++

O=C(CO)[C@@H](O)[C@H](O)[C@H](O)CO [fructose]
heterotrophic growth score, 0.1% [1]: ++
heterotrophic growth score, 0.5% [1]: ++
heterotrophic growth score, 1% [1]: ++
heterotrophic growth on carbon source, in words [1]: growth
heterotrophic growth score, 0.1% [2]: +
heterotrophic growth score, 0.5% [2]: +
heterotrophic growth score, 1% [2]: ++
heterotrophic growth on carbon source, in words [2]: heterotrophic growth
heterotrophic growth score, 0.1% [3]: ++
heterotrophic growth score, 0.5% [3]: +++
heterotrophic growth score, 1% [3]: +++
heterotrophic growth on carbon source, in words [3]: some growth

OCC(O)CO [glycerol]
DCW [4, 8]: 0.273 g/L and 0.206 g/L
DCW mg/15 ml. [4, 8]: 4.1 mg/15 ml and 3.1 mg/15 ml
DCW [4, 9]: 0.267 g/L and 0.20 g/L
DCW mg/15 ml. [4, 9]: 4.0 mg/15 ml and 3.0 mg/15 ml
DCW [4, 10]: 0.24 g/L and 0.293 g/L
DCW mg/15 ml. [4, 10]: 3.6 mg/15 ml and 4.4 mg/15 ml
difference in growth with or without glycerol ([4]; UTEX 572, light, mixotrophic): marginal difference
DCW [5, 11]: 0.273 g/L and 0.286 g/L
DCW mg/15 ml. [5, 11]: 4.1 mg/15 ml and 4.3 mg/15 ml
DCW [5, 12]: 0.22 g/L and 0.32 g/L
DCW mg/15 ml. [5, 12]: 3.3 mg/15 ml and 4.8 mg/15 ml
DCW [5, 13]: 0.24 g/L and 0.286 g/L
DCW mg/15 ml. [5, 13]: 4.3 mg/15 ml and 4.7 mg/15 ml
increased growth with glycerol ([5]; UTEX 2441, light, mixotrophic): 66%
heterotrophic growth score, 0.1% [1]: +
heterotrophic growth score, 0.5% [1]: +
heterotrophic growth score, 1% [1]: +
heterotrophic growth score, 0.1% [2]: +
heterotrophic growth score, 0.5% [2]: +
heterotrophic growth score, 1% [2]: +
heterotrophic growth score, 0.1% [3]: ++
heterotrophic growth score, 0.5% [3]: +++
heterotrophic growth score, 1% [3]: +++
heterotrophic growth on carbon source, in words [3]: some growth

O=C[C@H](O)[C@@H](O)[C@@H](O)[C@H](O)CO [galactose]
heterotrophic growth score, 0.1% [1]: ++
heterotrophic growth score, 0.5% [1]: +++
heterotrophic growth score, 1% [1]: +++
heterotrophic growth on carbon source, in words [1]: growth
heterotrophic growth score, 0.1% [2]: ++
heterotrophic growth score, 0.5% [2]: ++
heterotrophic growth score, 1% [2]: ++
heterotrophic growth on carbon source, in words [2]: heterotrophic growth
heterotrophic growth score, 0.1% [3]: ++
heterotrophic growth score, 0.5% [3]: +++
heterotrophic growth score, 1% [3]: ++
heterotrophic growth on carbon source, in words [3]: some growth

NC(N)=O [Urea, urea]
increased growth over glucose only culture ([6]; UTEX 572, 10 mM urea + 1% glucose): 76%
DCW [6, 14]: 0.467 g/L
DCW mg/3 m1. [6, 14]: 1.4 mg/3 m1
DCW [7]: 0.10 g/L and 0.067 g/L
DCW mg/3 m1. [7]: 0.3 mg/3 m1 and 0.2 mg/3 m1

CC(=O)[O-].[Na+] [acetate, sodium acetate]
heterotrophic growth score, 0.1% [1]: +
heterotrophic growth score, 0.5% [1]: +
heterotrophic growth score, 1% [1]: +
heterotrophic growth score, 0.1% [2]: +
heterotrophic growth score, 0.5% [2]: +
heterotrophic growth score, 1% [2]: +
heterotrophic growth score, 0.1% [3]: ++
heterotrophic growth score, 0.5% [3]: ++
heterotrophic growth score, 1% [3]: ++
